# In PubChem BioAssay (NCI):
#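 Dose response: 5 concentrations. Exposure: 48 h. Format: 96-well plates. Endpoint: linear interpolation; highest concentration if not reached. TGI denotes the concentration required for complete inhibition of growth.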
# Key:
# Assay in all cases: NCI-60 cell line screen, 48 h
# [1] = tested on: SNB-19 CNS
# [2] = tested on: HCC-2998 colon
# [3] = tested on: SNB-75 CNS
# [4] = tested on: A498 renal
# [5] = tested on: 786-0 renal
# [6] = tested on: SR leukemia
# [7] = tested on: HT29 colon
# [8] = tested on: NCI/ADR-RES ovarian
# [9] = tested on: RPMI-8226 leukemia
# [10] = tested on: SK-MEL-5 melanoma
# [11] = tested on: SF-295 CNS
# [12] = tested on: ACHN renal
# [13] = tested on: KM12 colon
# [14] = tested on: RXF 393 renal
# [15] = tested on: NCI-H522 lung
# [16] = tested on: SK-OV-3 ovarian
# [17] = tested on: OVCAR-5 ovarian
# [18] = tested on: MALME-3M melanoma
# [19] = tested on: NCI-H460 lung
# [20] = tested on: CAKI-1 renal
# [21] = tested on: OVCAR-8 ovarian
# [22] = tested on: DU-145 prostate
# [23] = tested on: HCT-116 colon
# [24] = tested on: NCI-H23 lung
# [25] = tested on: MDA-MB-231 breast
# [26] = tested on: COLO 205 colon
# [27] = tested on: HCT-15 colon
# [28] = tested on: BT-549 breast
# [29] = tested on: M14 melanoma
# [30] = tested on: U251 CNS
# [31] = tested on: PC-3 prostate
# [32] = tested on: MDA-N
# [33] = tested on: HS 578T breast
# [34] = tested on: OVCAR-3 ovarian
# [35] = tested on: OVCAR-4 ovarian
# [36] = tested on: A549 NSCLC
# [37] = tested on: SK-MEL-2 melanoma
# [38] = tested on: EKVX NSCLC
# [39] = tested on: MDA-MB-435
# [40] = tested on: SF-539 CNS
# [41] = tested on: IGROV1 ovarian
# [42] = tested on: SN12C renal
# [43] = tested on: SF-268 CNS
# [44] = tested on: UO-31 renal
# [45] = tested on: HL-60(TB) leukemia
# [46] = tested on: MOLT-4 leukemia
# [47] = tested on: SW-620 colon
# [48] = tested on: TK-10 renal
# [49] = tested on: HOP-92 NSCLC
# [50] = tested on: SK-MEL-28 melanoma
# [51] = tested on: UACC-62 melanoma
# [52] = tested on: MCF7 breast
# [53] = tested on: T-47D breast
# [54] = tested on: HOP-62 NSCLC
# [55] = tested on: CCRF-CEM leukemia
# [56] = tested on: UACC-257 melanoma
# [57] = tested on: K-562 leukemia
# [58] = tested on: LOX IMVI melanoma
# [59] = tested on: HOP-18 NSCLC
# [60] = tested on: NCI-H226 lung
# [61] = tested on: DMS 114 small cell lung
# [62] = tested on: LXFL 529 NSCLC
# [63] = tested on: SNB-78 CNS
# [64] = tested on: M19-MEL melanoma
# [65] = tested on: XF 498 CNS
compound,measurement,setting,value
Cc1csc2c(P(=O)(OC(C)C)OC(C)C)c(-c3ccccc3)cn12,TGI,[1],28.4 µM
same,TGI,[2],28.5 µM
same,TGI,[3],27.7 µM
same,TGI,[4],34.1 µM
same,TGI,[5],30.7 µM
same,TGI,[6],36.7 µM
same,TGI,[7],29.2 µM
same,TGI,[8],36.2 µM
same,TGI,[9],40.7 µM
same,TGI,[10],29.7 µM
same,TGI,[11],31.1 µM
same,TGI,[12],28.3 µM
same,TGI,[13],30.6 µM
same,TGI,[14],33.7 µM
same,TGI,[15],30.7 µM
same,TGI,[16],33 µM
same,TGI,[17],28.8 µM
same,TGI,[18],36.1 µM
same,TGI,[19],30.1 µM
same,TGI,[20],43.4 µM
same,TGI,[21],33 µM
same,TGI,[22],32.9 µM
same,TGI,[23],27.4 µM
same,TGI,[24],37.9 µM
same,TGI,[25],41.1 µM
same,TGI,[26],37.8 µM
same,TGI,[27],31.6 µM
same,TGI,[28],36 µM
same,TGI,[29],34.7 µM
same,TGI,[30],29.5 µM
same,TGI,[31],28.7 µM
same,TGI,[32],32.5 µM
same,TGI,[33],39.7 µM
same,TGI,[34],28.2 µM
same,TGI,[35],33 µM
same,TGI,[36],32.4 µM
same,TGI,[37],32.5 µM
same,TGI,[38],32.5 µM
same,TGI,[39],37.7 µM
same,TGI,[40],32.9 µM
same,TGI,[41],31.9 µM
same,TGI,[42],32.1 µM
same,TGI,[43],32 µM
same,TGI,[44],31.8 µM
same,TGI,[45],45.9 µM
same,TGI,[46],31.4 µM
same,TGI,[47],35.8 µM
same,TGI,[48],23.7 µM
same,TGI,[49],33.5 µM
same,TGI,[50],32.9 µM
same,TGI,[51],20 µM
same,TGI,[52],34.3 µM
same,TGI,[53],16.2 µM
same,TGI,[54],33.1 µM
same,TGI,[55],37.2 µM
same,TGI,[56],27.8 µM
same,TGI,[57],45.7 µM
same,TGI,[58],27.3 µM
Cc1c2cc[n+](COC(=O)c3ccccc3)cc2c(C)c2c1[nH]c1ccccc12,TGI,[1],52.6 µM
same,TGI,[4],2.48 µM
same,TGI,[9],2.92 µM
same,TGI,[17],2.39 µM
same,TGI,[21],2.11 µM
same,TGI,[59],1.93 µM
same,TGI,[40],1.48 µM
same,TGI,[42],1.79 µM
same,TGI,[44],4.82 µM
same,TGI,[45],2.72 µM
same,TGI,[46],1.59 µM
same,TGI,[55],2.91 µM
same,TGI,[57],1.52 µM
CN(C)c1nc(N(C)C)nc(N(C)CN(C)c2ccccc2)n1,TGI,[1],> 100 µM
same,TGI,[2],> 100 µM
same,TGI,[3],> 100 µM
same,TGI,[7],> 100 µM
same,TGI,[10],> 100 µM
same,TGI,[11],> 100 µM
same,TGI,[12],> 100 µM
same,TGI,[60],> 100 µM
same,TGI,[13],> 100 µM
same,TGI,[14],> 100 µM
same,TGI,[61],> 100 µM
same,TGI,[15],> 100 µM
same,TGI,[16],> 100 µM
same,TGI,[18],> 100 µM
same,TGI,[19],> 100 µM
same,TGI,[21],> 100 µM
same,TGI,[23],> 100 µM
same,TGI,[62],> 100 µM
same,TGI,[24],> 100 µM
same,TGI,[27],> 100 µM
same,TGI,[30],> 100 µM
same,TGI,[34],> 100 µM
same,TGI,[35],> 100 µM
same,TGI,[59],> 100 µM
same,TGI,[36],> 100 µM
same,TGI,[37],> 100 µM
same,TGI,[40],> 100 µM
same,TGI,[63],> 100 µM
same,TGI,[41],> 100 µM
same,TGI,[64],> 100 µM
same,TGI,[42],> 100 µM
same,TGI,[43],> 100 µM
same,TGI,[44],> 100 µM
same,TGI,[45],> 100 µM
same,TGI,[46],> 100 µM
same,TGI,[65],> 100 µM
same,TGI,[48],> 100 µM
same,TGI,[50],> 100 µM
same,TGI,[51],> 100 µM
same,TGI,[55],> 100 µM
same,TGI,[56],> 100 µM
same,TGI,[57],> 100 µM
same,TGI,[58],> 100 µM
COc1ccc2c(c1)/C(=C(\C(Cl)=C(\Cl)N1CCCCC1)[N+](=O)[O-])N2,TGI,[1],> 100 µM
same,TGI,[2],> 100 µM
same,TGI,[3],> 100 µM
same,TGI,[4],> 100 µM
same,TGI,[5],> 100 µM
same,TGI,[6],> 100 µM
same,TGI,[7],> 100 µM
same,TGI,[8],> 100 µM
same,TGI,[10],> 100 µM
same,TGI,[11],> 100 µM
same,TGI,[12],> 100 µM
same,TGI,[60],> 100 µM
same,TGI,[13],> 100 µM
same,TGI,[14],> 100 µM
same,TGI,[15],> 100 µM
same,TGI,[16],> 100 µM
same,TGI,[17],> 100 µM
same,TGI,[18],> 100 µM
same,TGI,[19],> 100 µM
same,TGI,[20],> 100 µM
same,TGI,[21],> 100 µM
same,TGI,[22],> 100 µM
same,TGI,[23],> 100 µM
same,TGI,[24],> 100 µM
same,TGI,[25],> 100 µM
same,TGI,[26],> 100 µM
same,TGI,[27],> 100 µM
same,TGI,[28],> 100 µM
same,TGI,[29],> 100 µM
same,TGI,[30],> 100 µM
same,TGI,[31],> 100 µM
same,TGI,[32],> 100 µM
same,TGI,[33],> 100 µM
same,TGI,[34],> 100 µM
same,TGI,[35],> 100 µM
same,TGI,[36],> 100 µM
same,TGI,[38],> 100 µM
same,TGI,[39],> 100 µM
same,TGI,[41],> 100 µM
same,TGI,[42],> 100 µM
same,TGI,[43],> 100 µM
same,TGI,[44],> 100 µM
same,TGI,[45],> 100 µM
same,TGI,[46],> 100 µM
same,TGI,[47],> 100 µM
same,TGI,[48],> 100 µM
same,TGI,[49],> 100 µM
same,TGI,[50],> 100 µM
same,TGI,[51],> 100 µM
same,TGI,[52],> 100 µM
same,TGI,[53],> 100 µM
same,TGI,[54],> 100 µM
same,TGI,[55],> 100 µM
same,TGI,[56],> 100 µM
same,TGI,[57],> 100 µM
same,TGI,[58],> 100 µM
